This data set is described as follows: in vitro. The note with it: human, hela cells, % viability.

The values below come from PMC12040169 (PLOS Biology, 2025).

By viability is commonly meant a read-out of living cells in per cent, often relative to untreated cells.

Consider `COc1ncc(-c2cnc(N)c(-c3ccc(C=O)cc3)n2)c(OC)n1` [CBK064110], for which the viability at 28.5 h, 10 µM was 94.1%.

For the compound `CN1CCN(c2ccc(-c3cnc(N)c(NC4CCOCC4)n3)cc2)CC1` [CBK064114], the viability at 28.5 h, 10 µM is 88.8%.

Turning to `Nc1ncc(-c2cncnc2)nc1-c1ccc(CCC(=O)O)cc1` [CBK064120], the viability at 28.5 h, 10 µM amounted to 102%. In the case of `Nc1ncc(-c2ccco2)nc1-c1ccc(C(=O)NCCO)cc1` [CBK064124], the viability at 28.5 h, 10 µM was found to be 91.1%. As for `CCCC/C=C/c1cnc(N)c(-c2ccc(CCC(=O)O)cc2)n1` [CBK064127], the figure is 95.5%; as for `Nc1ncc(-c2cc3ccccc3s2)nc1-c1ccc(CCC(=O)O)cc1` [CBK064134], 98.1%.

With `CCCC/C=C/c1cnc(N)c(-c2ccc(C(=O)NCCO)cc2)n1` [CBK064141], the viability at 28.5 h, 10 µM is 106%.

Turning to `Nc1ncc(-c2cccc(O)c2)nc1-c1ccc(C(=O)NCCO)cc1` [CBK064143], the viability at 28.5 h, 10 µM stood at 114%. Take `COc1ccc(-c2cnc(N)c(-c3ccc(C(=O)NCCO)cc3)n2)cn1` [CBK064147]: the viability at 28.5 h, 10 µM was 95.6%.

In the case of `COCCn1c(=O)[nH]c2ncc(-c3ccc4c(c3)OCO4)nc21` [CBK064164], the viability at 28.5 h, 10 µM is 95.8%.

As for `CC(C)Cn1c(=O)[nH]c2ncc(-c3cncnc3)nc21` [CBK064177], the viability at 28.5 h, 10 µM amounted to 90.1%. Turning to `CCCC/C=C/c1cnc2[nH]c(=O)n([C@H](C)c3ccccc3)c2n1` [CBK064182], the viability at 28.5 h, 10 µM amounted to 99.7%.

For the compound `CN(C)CCNC(=O)c1cccc(-c2cnc3[nH]c(=O)n(C4CCCCC4)c3n2)c1` [CBK064191], the viability at 28.5 h, 10 µM was 103%. For the compound `C[C@@H](c1ccccc1)n1c(=O)[nH]c2ncc(-c3cccc4cccnc34)nc21` [CBK064199], the viability at 28.5 h, 10 µM stood at 92%. In the case of `CCCC/C=C/c1cnc2[nH]c(=O)n(CC(C)C)c2n1` [CBK064225] it was 96.4%; in that of `COc1cncc(-c2cnc3[nH]c(=O)n(C4CCCCC4)c3n2)c1` [CBK064230], 97.8%. As for `COc1ccc(-c2cnc3[nH]c(=O)n([C@H](C)c4ccccc4)c3n2)c(OC)c1OC` [CBK064236], the figure is 94.7%; as for `COc1ccc(-c2cnc3[nH]c(=O)n(CCCN4CCOCC4)c3n2)c(OC)c1OC` [CBK064249], 109%.

`CCCC/C=C/c1cnc2[nH]c(=O)n(C3CCOCC3)c2n1` [CBK064253]: the viability at 28.5 h, 10 µM came to 98.1%. In the case of `COc1cc(-c2cnc3[nH]c(=O)n(C4CCOCC4)c3n2)cc(OC)c1OC` [CBK064255], the viability at 28.5 h, 10 µM is 94.6%.

Regarding `O=c1[nH]c2ncc(-c3cccc4ccccc34)nc2n1Cc1cccnc1` [CBK064274], the viability at 28.5 h, 10 µM was 102%. In the case of `O=c1[nH]c2ncc(-c3cccc4cccnc34)nc2n1Cc1cccnc1` [CBK064305] it was 58.9%; in that of `O=c1[nH]c2ncc(-c3cccc(-c4ccccc4)c3)nc2n1CCCN1CCOCC1` [CBK064311], 92.1%. For `O=c1[nH]c2ncc(-c3ccco3)nc2n1CCCN1CCOCC1` [CBK064319], the viability at 28.5 h, 10 µM came out at 90.6%. As for `COc1ccc(C(C)C)cc1-c1cnc2[nH]c(=O)n(CCc3cccnc3)c2n1` [CBK064343], the figure is 90.4%; as for `O=c1[nH]c2ncc(-c3ccco3)nc2n1Cc1ccccn1` [CBK064349], 101%; as for `C[C@@H](c1ccccc1)n1c(=O)[nH]c2ncc(-c3ccc(N(C)C)cc3)nc21` [CBK064352], 103%. As for `CC(=O)c1ccc(-c2cnc3[nH]c(=O)n([C@@H](C)c4ccccc4)c3n2)s1` [CBK064360], the figure is 98.3%; as for `CCCC/C=C/c1cnc2[nH]c(=O)n(Cc3ccccn3)c2n1` [CBK064365], 102%.

As for `COCCCn1c(=O)[nH]c2ncc(-c3ccc(C(=O)N4CCOCC4)cc3)nc21` [CBK064366], the viability at 28.5 h, 10 µM came to 97.8%. For the compound `C[C@@H](c1ccccc1)n1c(=O)[nH]c2ncc(-c3cccc(C(=O)NCCN(C)C)c3)nc21` [CBK064376], the viability at 28.5 h, 10 µM amounted to 103%. `CC(=O)c1ccc(-c2cnc3[nH]c(=O)n(C4CCCCC4)c3n2)s1` [CBK064382]: the viability at 28.5 h, 10 µM worked out at 103%. As to `CS(=O)(=O)c1ccc(-c2cnc3[nH]c(=O)n(Cc4cccs4)c3n2)cc1` [CBK064383], the viability at 28.5 h, 10 µM is 93.1%. As for `O=c1[nH]c2ncc(-c3ccco3)nc2n1Cc1ccc(F)c(Cl)c1` [CBK064393], the figure is 108%; as for `C[C@@H](c1ccccc1)n1c(=O)[nH]c2ncc(-c3cccc4ncccc34)nc21` [CBK064394], 116%.

With `CC(C)Cn1c(=O)[nH]c2ncc(-c3cccc4cccnc34)nc21` [CBK064400], the viability at 28.5 h, 10 µM turned out to be 60.5%. In the case of `COc1ncc(-c2cnc3[nH]c(=O)n([C@H](C)c4ccccc4)c3n2)cn1` [CBK064401] it was 85.3%; in that of `O=c1[nH]c2ncc(-c3ccc(OC(F)(F)F)cc3)nc2n1Cc1ccc(Cl)cc1` [CBK064409], 103%. In the case of `O=C(c1ccc(-c2cnc3[nH]c(=O)n(Cc4ccccn4)c3n2)cc1)N1CCOCC1` [CBK064413] it was 110%. In the case of `COCCCn1c(=O)[nH]c2ncc(-c3ccc(O)cc3)nc21` [CBK064425] it was 93.6%; in that of `O=c1[nH]c2ncc(-c3ccco3)nc2n1Cc1cccs1` [CBK064438], 103%. Turning to `COCCCn1c(=O)[nH]c2ncc(-c3ccco3)nc21` [CBK064449], the viability at 28.5 h, 10 µM came to 99.2%. As for `COc1cc(-c2cnc3[nH]c(=O)n([C@@H](CO)C(C)C)c3n2)cc(OC)c1OC` [CBK064471], the figure is 105%; as for `CC(C)[C@H](CO)n1c(=O)[nH]c2ncc(-c3ccco3)nc21` [CBK064479], 86.7%.

As to `O=c1[nH]c2ncc(-c3ccncc3)nc2n1CC1CC1` [CBK064539], the viability at 28.5 h, 10 µM is 90%.

On to `CCCC/C=C/c1cnc2[nH]c(=O)n(CCCOC)c2n1` [CBK064540], for which the viability at 28.5 h, 10 µM was found to be 109%. In the case of `C[C@@H](c1ccccc1)n1c(=O)[nH]c2ncc(-c3ccc(C(=O)NC4CCCC4)cc3)nc21` [CBK064542], the viability at 28.5 h, 10 µM turned out to be 91.2%. In the case of `CC(C)Cn1c(=O)[nH]c2ncc(-c3ccc(C(=O)NC4CCCC4)cc3)nc21` [CBK064551] it was 108%; in that of `CN(C)C(=O)c1cccc(-c2cnc3[nH]c(=O)n(Cc4ccc(Cl)cc4)c3n2)c1` [CBK064553], 97.5%. As for `C[C@H](c1ccccc1)n1c(=O)[nH]c2ncc(-c3ccc(C(=O)N4CCN(C)CC4)cc3)nc21` [CBK064559], the viability at 28.5 h, 10 µM came out at 101%. In the case of `O=c1[nH]c2ncc(-c3cccnc3)nc2n1Cc1ccc(Cl)cc1` [CBK064561] it was 98.3%; in that of `O=c1[nH]c2ncc(-c3ccsc3)nc2n1C1CCCCC1` [CBK064574], 92.6%; in that of `CN(C)CCNC(=O)c1ccc(-c2cnc3[nH]c(=O)n(CC4CC4)c3n2)cc1` [CBK064578], 94.6%. As for `O=C(NC1CCCC1)c1ccc(-c2cnc3[nH]c(=O)n(C4CCCCC4)c3n2)cc1` [CBK064582], the figure is 113%.
